Results published in ChEMBL document CHEMBL1201862, “PubChem BioAssay data set” (2004).
Calls of active or inactive are those of the source.

How the values were obtained:
[1] = biological target: T1, Calpain-2 catalytic subunit (Sus scrofa, UniProt P43367); assay: pig calpain II inhibitor potency, dose response, biochemical, fluorogenic peptide substrate (AID 1420); type: functional
T1 sequence (P43367 whole entry): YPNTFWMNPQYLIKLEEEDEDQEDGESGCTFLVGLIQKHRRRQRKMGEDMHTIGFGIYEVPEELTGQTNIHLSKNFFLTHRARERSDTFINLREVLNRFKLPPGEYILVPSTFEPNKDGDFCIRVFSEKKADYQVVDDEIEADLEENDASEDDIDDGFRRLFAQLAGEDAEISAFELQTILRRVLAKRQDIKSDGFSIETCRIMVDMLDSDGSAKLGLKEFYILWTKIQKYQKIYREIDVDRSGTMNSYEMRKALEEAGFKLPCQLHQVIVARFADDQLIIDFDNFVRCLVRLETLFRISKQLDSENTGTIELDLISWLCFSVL

[2] = HEp-2 cell cytotoxicity, dose response, cytotoxicity control for RSV inhibitor project, HTS (AID 2410); type: functional; details: human respiratory syncytial virus
H9c2 = assay: cells; type: functional, cell-based; details: Rattus norvegicus, H9c2, Myocardium;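 further: confirmatory concentration-response retest of ultra-high-throughput screening hits for modulation of myocardial damage; cell death induced by hydrogen peroxide oxidative stress; compound pretreatment for 60 min then peroxide exposure for 2 h; potency is for protecting the cells against peroxide damage rather than for killing them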
[3] = biological target: Luciferin 4-monooxygenase (Photinus pyralis, UniProt P08659); assay: firefly luciferase enzyme inhibitors, dose response, biochemical, luminescence (AID 1891)
[4] = Luminescence Cell-Based Dose Confirmation HTS to Identify Inhibitors of Platelet Dense Granule Release. [Related pubchem assays: 1663 (Primary HTS), 1678 (Summary of Project)]; type: functional
[5] = Luminescence Cell-Based Dose Retest to Confirm Inhibitors of Cancer Stem Cells. [Related pubchem assays (depositor defined):AID2717, AID2721]; type: functional; details: Homo sapiens
[6] = cytotoxicity toward NIH3T3 fibroblasts, dose response, counter-screen, cell-based, ATP luminescence, mouse fibroblasts (AID 2010); type: functional;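 further: cells exposed to compound for about 90 hours before reading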
[7] = inhibitors of intracellular T. cruzi replication, confirmation, NIH3T3 host cells, beta-gal luminescence (AID 2044); type: functional, cell-based;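 further: intracellular parasites grown in NIH/3T3 mouse fibroblasts as host cells; luminescent beta-galactosidase reporter signal from transgenic T. cruzi replicating inside host cells; inhibitors lower the luminescence signal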
[8] = Luminescence Cell-Based Dose Response HTS to Identify Inhibitors of 5'UTR Stem-Loop Driven Prion Protein mRNA Translation in H4 Neuroglioblastoma Cells. [Related pubchem assays: 1827 (Project Summary), 1813 (Primary HTS)]; type: functional
[9] = biological target: T2, Rac GTPase-activating protein 1 (Homo sapiens, UniProt Q9H0H5); assay: MgcRacGAP GTPase-activating activity inhibitors, confirmation, biochemical, ADP Hunter fluorescence, primary and confirmatory (AID 624330); type: functional
T2 sequence (Q9H0H5 whole entry): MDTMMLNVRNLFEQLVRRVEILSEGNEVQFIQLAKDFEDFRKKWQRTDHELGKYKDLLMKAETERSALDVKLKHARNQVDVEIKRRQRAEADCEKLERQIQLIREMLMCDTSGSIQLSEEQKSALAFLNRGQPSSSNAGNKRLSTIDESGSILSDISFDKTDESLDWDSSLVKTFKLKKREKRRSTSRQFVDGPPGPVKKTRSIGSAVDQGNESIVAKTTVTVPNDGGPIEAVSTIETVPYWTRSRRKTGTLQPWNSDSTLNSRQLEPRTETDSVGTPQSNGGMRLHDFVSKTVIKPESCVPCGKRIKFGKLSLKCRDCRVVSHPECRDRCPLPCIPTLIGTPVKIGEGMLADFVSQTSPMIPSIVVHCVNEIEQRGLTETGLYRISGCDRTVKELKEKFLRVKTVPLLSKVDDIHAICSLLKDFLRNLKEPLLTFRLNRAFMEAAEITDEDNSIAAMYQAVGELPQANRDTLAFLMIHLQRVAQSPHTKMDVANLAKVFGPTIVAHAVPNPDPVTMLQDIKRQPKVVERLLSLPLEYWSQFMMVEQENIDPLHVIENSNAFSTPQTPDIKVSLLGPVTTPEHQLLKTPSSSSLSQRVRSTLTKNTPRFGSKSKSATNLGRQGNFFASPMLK
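Wherever AC50 is given: cells exposed to compound for roughly 70 hours or longer before luminescence read.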

Chain of Luciferin 4-monooxygenase (P08659 whole entry): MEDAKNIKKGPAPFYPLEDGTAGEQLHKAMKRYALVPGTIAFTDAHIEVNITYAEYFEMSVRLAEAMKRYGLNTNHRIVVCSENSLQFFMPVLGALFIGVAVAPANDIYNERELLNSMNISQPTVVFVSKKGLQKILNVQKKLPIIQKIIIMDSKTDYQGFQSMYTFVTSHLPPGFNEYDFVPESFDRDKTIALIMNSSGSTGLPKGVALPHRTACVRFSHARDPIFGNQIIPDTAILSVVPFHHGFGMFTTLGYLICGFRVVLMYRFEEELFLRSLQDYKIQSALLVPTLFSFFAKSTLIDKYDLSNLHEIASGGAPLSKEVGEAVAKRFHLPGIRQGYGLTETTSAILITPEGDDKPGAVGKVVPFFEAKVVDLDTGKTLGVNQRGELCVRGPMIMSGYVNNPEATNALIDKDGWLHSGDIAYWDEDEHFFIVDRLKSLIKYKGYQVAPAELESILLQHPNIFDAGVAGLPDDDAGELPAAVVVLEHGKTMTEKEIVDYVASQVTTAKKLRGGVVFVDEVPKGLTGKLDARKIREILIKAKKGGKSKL

| Compound | IC50 (H9c2) | EC50 [3] | EC50 [4] | other results |
| --- | --- | --- | --- | --- |
| Cc1ccc(C2CCN(C(S)=Nc3cccc(C)c3)C2)cc1 (configuration not stated) | – | – | – | IC50 [1]: 9.72 µM (not active) |
| Cc1ccc(C2(CCNCc3ccc(N(C)C)cc3)CCOC(C(C)C)C2)cc1 (configuration not stated) | – | – | – | CC50 [2]: 12.6 µM (active) |
| Cc1ccc(-c2nnc(NCc3nc4ccccc4[nH]3)c3ccccc23)cc1S(=O)(=O)N1CCOCC1 | > 79 µM (inactive) | – | – | – |
| CCOC(=O)N1CCc2c(sc(NC(=O)CN3CCOCC3)c2C(=O)Nc2ccccc2)C1 | 22.8 µM (active) | – | – | – |
| O=c1oc(Nc2cccc(Cl)c2)nc2ccccc12 | – | 37.7 µM (active) | 16 µM (active) | – |
| Cn1c(=O)n(C)c2cc([N+](=O)[O-])c(N3CCN(CCO)CC3)cc21 | – | – | – | IC50 [1]: 7.45 µM (not active) |
| O=C(CCN1Cc2ccccc2C1)c1ccc2c(c1)OCCO2 | – | – | – | AC50 [5]: 11.5 µM (active) |
| CCCCn1c(N)c(N(CC(C)C)C(=O)c2ccc(Br)s2)c(=O)[nH]c1=O | – | > 112 µM (not active) | > 112 µM (not active) | – |
| COc1ccccc1N(Cc1ccccc1)S(=O)(=O)c1cccc(C(=O)Nc2ccc(C)cn2)c1 | – | – | – | CC50 [2]: 11 µM (active); EC50 [6]: > 30 µM (not active); EC50 [7]: 1.58 µM (active) |
| CCOc1ccccc1Cn1c(=O)sc2ccccc21 | – | – | – | IC50 [1]: 13.1 µM (not active) |
| COc1cccc(C2CC(c3ccccc3OC)n3nc(N)nc3N2)c1 (configuration not stated) | – | – | – | IC50 [1]: > 50 µM (not active) |
| CCc1ccc(NC(=O)Nc2ccsc2C(=O)OC)cc1 | – | 0.701 µM (active) | 2.06 µM (active) | – |
| Cc1cc2nnc(SC(C)C)n2c2ccccc12 | – | – | – | CC50 [2]: > 50 µM (active) |
| Cc1ccc(-c2nc3ccccc3[nH]2)s1 | – | 0.951 µM (active) | 7.89 µM (active) | – |
| N#CCCN(C(=O)COC(=O)CCc1nc(O)c2ccccc2n1)c1ccc(F)cc1 | > 79 µM (inactive) | – | – | – |
| COc1ccc(OC)c(NC(=O)c2sc3ncnc(N4CCN(c5ccccn5)CC4)c3c2C)c1 | > 79 µM (inactive) | – | – | – |
| O=C(CN1C(=O)C2CC=CCC2C1=O)Nc1nc(-c2ccc(F)c(F)c2)cs1 (configuration not stated) | > 79 µM (inactive) | – | – | – |
| CN(C)S(=O)(=O)n1cc(/C=C(\NC(=O)c2ccccc2F)C(=O)NCCN2CCOCC2)c2ccccc21 | > 79 µM (inactive) | – | – | – |
| S=C(NCC1CC1)N/N=C/c1ccccc1Cl | – | > 112 µM (not active) | > 112 µM (not active) | – |
| COc1ccc(CC(=O)NCC(=O)N/N=C/c2cc(Br)ccc2OC)cc1 | 34.7 µM (inactive) | – | – | – |
| CCc1nnc(S)n1/N=C/c1c(C)nn(-c2ccccc2)c1Cl | – | – | – | EC50 [8]: 19 µM (active) |
| CSc1ccc(/C=N/NC(=O)c2cc(O)cc(O)c2)cc1 | – | 1.22 µM (active) | 10 µM (active) | – |
| COc1ccc(C(=O)Nc2ccccc2C(=O)N/N=C/c2ccncc2)cc1OC | – | 0.609 µM (active) | 0.564 µM (active) | – |
| C/C(=N\O)[C@H]1CC[C@H]2[C@@H]3CC[C@H]4C/C(=N\O)CC[C@]4(C)[C@H]3C(C)(O)C[C@]12C (some centres not stated) | > 79 µM (inactive) | – | – | – |
| Oc1ccc(/C=C/c2ccc3ccccc3n2)cc1 | – | 0.161 µM (active) | 0.235 µM (active) | IC50 [9]: 28 µM (active); CC50 [2]: 19.7 µM (active) |
